Measurements: the supplement of paper PMC10307832

Experiments:
Assay in all cases: relative viability (nuclei count vs DMSO), 5 days (fraction); higher = more cells survive
[1] = compound: COc1cc(Nc2ncc(F)c(Nc3ccc4c(n3)NC(=O)C(C)(C)O4)n2)cc(OC)c1OC [R406] + COc1cccc2cc(-c3nc([C@H]4CC[C@H](C(=O)O)CC4)n4ncnc(N)c34)[nH]c12 [OSI-027] (partner 0.5 µM)
Outline: (§1)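 Each reported value is a median over duplicate plates. It expresses relative viability: treated-well nuclei count divided by vehicle-well nuclei count. Lung cancer cell lines in 1536-well plates were dosed by pin tool a day after seeding, alone with one drug or with a fixed anchor-drug dose plus five library-drug doses (not always all listed) in √10 steps, and nuclei were counted after 5 days.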

[2] = compound: COc1cc(Nc2ncc(F)c(Nc3ccc4c(n3)NC(=O)C(C)(C)O4)n2)cc(OC)c1OC [R406] + C[C@]1(O)C[C@@H](c2nc(-c3ccc4ccc(-c5ccccc5)nc4c3)c3c(N)nccn32)C1 [Linsitinib] (partner 1 µM)
Outline: as §1

[3] = compound: COc1cc(Nc2ncc(F)c(Nc3ccc4c(n3)NC(=O)C(C)(C)O4)n2)cc(OC)c1OC [R406] + N=C(N)NC(=N)NCCc1ccccc1 [Phenformin] (partner 250 µM)
Outline: as §1

[4] = compound: O=C(/C=C/c1cccnc1)NCCCCC1CCN(C(=O)c2ccccc2)CC1 [Daporinad] + CCNC(=O)c1noc(-c2cc(C(C)C)c(O)cc2O)c1-c1ccc(CN2CCOCC2)cc1 [Luminespib] (partner 0.01 µM)
Outline: as §1

Cell Line | relative viability ([1]; first compound 0.08 µM) | relative viability ([1]; first compound 0.253 µM) | relative viability ([1]; first compound 0.8 µM) | relative viability ([1]; first compound 2.53 µM) | relative viability ([1]; first compound 8 µM) | relative viability ([2]; first compound 0.08 µM) | relative viability ([2]; first compound 0.253 µM) | relative viability ([2]; first compound 0.8 µM) | relative viability ([2]; first compound 2.53 µM) | relative viability ([2]; first compound 8 µM) | relative viability ([3]; first compound 0.08 µM) | relative viability ([3]; first compound 0.253 µM) | relative viability ([3]; first compound 0.8 µM) | relative viability ([3]; first compound 2.53 µM) | relative viability ([3]; first compound 8 µM) | relative viability ([4]; first compound 0.0005 µM) | relative viability ([4]; first compound 0.001581 µM) | relative viability ([4]; first compound 0.005 µM) | relative viability ([4]; first compound 0.01581 µM)
CAL-12T | 0.654 | 0.702 | 0.895 | 0.133 | 0.209 | 0.806 | 0.909 | 0.943 | 0.495 | 0.675 | 0.57 | 0.667 | 0.668 | 0.353 | 0.14 | 0.17 | 0.41 | 0.545 | 0.193
NCI-H596 | 0.793 | 0.682 | 0.903 | 0.329 | 0.269 | 1.09 | 1.2 | 1.2 | 0.878 | 0.232 | 0.672 | 0.845 | 0.967 | 0.703 | 0.281 | 0.919 | 1.04 | 1.05 | 0.479
NCI-H1755 | 0.667 | 0.78 | 0.692 | 0.331 | 0.376 | 0.924 | 1.02 | 1.02 | 0.779 | 0.688 | 0.602 | 0.651 | 0.621 | 0.374 | 0.429 | 0.31 | 0.381 | 0.541 | 0.488
NCI-H2023 | 0.413 | 0.464 | 0.488 | 0.134 | 0.0924 | 0.633 | 0.714 | 0.62 | 0.253 | 0.55 | 0.374 | 0.444 | 0.464 | 0.312 | 0.163 | 0.727 | 0.759 | 0.918 | 0.717
NCI-H2009 | 0.602 | 0.729 | 0.747 | 0.301 | 0.149 | 1.09 | 1.3 | 1.19 | 1.18 | 1.07 | 0.47 | 0.501 | 0.487 | 0.333 | 0.185 | 1.02 | 1.08 | 1 | 0.702
